{"source": "patent US8133986B2", "about": "“Methylated CpG island amplification (MCA)” (The Johns Hopkins University School of Medicine, priority 1998, dated 2012)", "assay_type_in_all_cases": "cell-based, human", "key": {"versican": {"test_system": "versican", "assay": "RT-PCR expression of versican in methylated colon cancer cell lines after demethylating treatment", "settings": "1 μM for 2-5 days", "source_text": "To determine whether some of these clones truly represented genes silenced by methylation, we examined the versican gene in more detail. Versican is a secreted glycoprotein that appears to be regulated by the Rb tumor suppressor gene. MINT11 corresponds to part of exon 1 and part of intron 1 of the versican gene (FIG. 3A). Hypermethylation of the two SmaI sites in exon 1 and intron 1 in colon cancer cell lines was confirmed by both Southern blot analysis and MCA. In order to determine if this methylation was representative of the entire CGI, including the proximal promoter, PCR was performed on bisulfite-treated DNA using primers designed to amplify the region around the transcription start site of this gene. The PCR product was then digested with restriction enzymes that distinguish methylated from unmethylated DNA. […] In primary colon tumors, versican was hypermethylated in 17 out of 25 cases (68%). […] The level of methylation in normal colon mucosa increased with age of the patient (FIG. 3C), from an average of 6.9% in patients between 20 and 30 years of age, to an average of 28.9% in patients over 80. […] Using RT-PCR, we next examined the expression of versican in normal colon mucosa and CRC cell lines.\nTotal RNA was prepared from normal colon epithelium and tumor cell lines using TRIZOL (GIBCO-BRL). […] The expression of versican was determined by RT-PCR using the primers […]"}, "[1]": {"test_system": "region 7 of CACNA1G CpG island", "assay": "Bisulfite-PCR methylation analysis of the 5′ CpG island of CACNA1G after treatment", "settings": "same cell lines after treatment; bisulfite-PCR (FIG. 3C)", "source_text": "The CACNA1G CpG island is 4 kb, and is larger than many typical CpG islands. MINT31 corresponds to the 5′ edge of the island while CACNA1G is in the 3′ region. It is not known whether large CpG islands such as this are coordinately regulated with regards to protection from methylation, and aberrant methylation in cancer. To address this issue, the methylation status of the 5′ region of CACNA1G was studied using bisulfite-PCR of DNA from normal tissues as well as 35 human cancer cell lines from colon, lung, prostate, breast and hematopoietic tumors. The CpG island was divided into 8 regions and their methylation status was examined separately. The genomic DNA was treated with sodium bisulfite and PCR amplified using primers containing no or a minimum number of CpG sites. Methylated alleles were detected by digesting the PCR products using restriction enzymes which specifically cleave sites created or retained due to the presence of methylated CpGs. None of the regions was methylated in normal colon, consistent with a uniform protection against de-novo methylation. […]"}, "CACNA1G": {"test_system": "CACNA1G", "assay": "Re-expression of CACNA1G mRNA (RT-PCR) in methylated tumor cell lines after methyl-transferase inhibitor treatment", "set-up": "dose or concentration left out as unconfirmed", "settings": "RKO, SW48, Raji (pattern 4) and MB-231, MB-435 (pattern 5) cell lines; treated", "experimental": "To determine the expression of CACNA1G in normal and neoplastic human cells, RT-PCR was performed using cDNA from various normal tissues and from a panel of 27 tumor cell lines. CACNA1G was expressed ubiquitously in a variety of tissues and cell lines. In normal tissues expression was relatively low but easily detectable, while most cell lines had relatively high expression of CACNA1G. However, some cell lines had negligible or totally absent levels of CACNA1G expression. The results of CACNA1G expression was correlated with the detailed methylation analysis previously described. In this analysis, a remarkable pattern emerged. Methylation of region 1-4 and 8 had no effect on CACNA1G expression. However, there was a strong correlation between methylation of regions 5-7 and expression of the gene. In fact, all cell lines that lack methylation of this region strongly express the gene. All 6 cell lines with pattern 4 methylation studied had no detectable expression. Finally, the 7 cell lines with pattern 5 methylation (examples DLD-1 and MB-453) had variable levels of expression ranging from very low to near normal. […]\nTotal RNA was prepared from normal colon epithelium and tumor cell lines using TRIZOL (GIBCO-BRL). […] The expression of versican was determined by RT-PCR using the primers"}}}
{"smiles": "Nc1ncn([C@H]2C[C@H](O)[C@@H](CO)O2)c(=O)n1", "note": "[5-aza-deoxycytidine, 5-aza-2′-deoxycytidine]", "values": [{"measurement": "Expression of versican", "setting": "versican", "value": "easily restored"}, {"measurement": "Methylation of region 7 of CACNA1G", "setting": "[1]", "value": "demethylation of region 7 was observed"}, {"measurement": "CACNA1G mRNA expression", "setting": "CACNA1G", "value": "re-expressed"}]}
